Like-named read-outs stand apart in the source and are kept apart here. Where a SMILES comes first, the peptide text is derived from it.
Columns and labels:
HLA-B*4402 = HLA-B*4402 (Homo sapiens, UniProt P01889, A223V/A65T/A93T/A95T/D201E/D98Y/E176V/E187L/E204Q/E69K/G107R/H137Y/K202T/L105A/L119I/N104T/N87E/Q56L/Q94N/R106L/R155S/R180D/S101N/S121R/S35A/S48T/T118I/V36M/W191S/Y140D/Y91S); assay: In vitro class I HLA binding assay (fluorescence polarization competition); conditions: allele B*4402
How it was run: (§1)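 Cell-free competition assay: HLA heat-treated 53°C for 15 min to strip endogenous peptides, then mixed with fluorescent high-affinity control peptide and test peptides for 72 h to equilibrium. Displacement read by fluorescence polarization as percent inhibition; IC50 derived from a concentration range.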

HLA-A*0301 = HLA-A*0301 (Homo sapiens, UniProt P04439); assay: biochemical; format: binding; conditions: allele A*0301; fluorescence polarization competition; read-out: IC50 (nM), in vitro HLA binding affinity
How it was run: as §1

HLA-DRB1*0301 = HLA-DRB1*0301 (Homo sapiens, UniProt P01903+P01911, A100K/A102G/A103R/A169T/F55Y/I96L/K41T/L162R/M171V/P40S/Q125H/Q178H/Q39Y/R42S/S66N/T106N/T262R/W38E/Y61H); assay: biochemical; format: binding; conditions: binding inhibition assay; NB = non-binder (no dose-dependent inhibition); read-out: DRB1*0303 IC50
Chain of HLA-DRB1*0301 (P01903 26-254 limits assumed, other chains not shown): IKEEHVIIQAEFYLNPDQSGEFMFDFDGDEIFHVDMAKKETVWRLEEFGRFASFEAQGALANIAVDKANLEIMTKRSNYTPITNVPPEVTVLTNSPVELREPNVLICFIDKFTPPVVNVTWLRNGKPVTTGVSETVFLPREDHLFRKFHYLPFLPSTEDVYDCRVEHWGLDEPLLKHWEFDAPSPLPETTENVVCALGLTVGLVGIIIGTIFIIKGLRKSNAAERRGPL

HLA-DRB1*0101 = molecular target: T1, HLA-DRB1*0101 (Homo sapiens, UniProt P01903+P01911, A100R/D57E/F55L/F60I/F76Y/I96L/L162R/M171V/P40L/Q125E/R42F/V115G/Y59C); assay: biochemical; format: binding; conditions: binding inhibition assay; NB = non-binder (no dose-dependent inhibition); read-out: DRB1*0101 IC50
T1 construct: purchased
How it was run: (§2)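 Peptides were titrated (final 100,000 nM down to 100 nM) in competition with a labeled reference binder for commercial HLA-DRB1 monomers.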

HLA-DRB1*0701 = HLA-DRB1*0701 (Homo sapiens, UniProt P01903+P01911, A100R/A102G/A103Q/D57E/D86V/E43K/F76Y/K127E/L162R/M171V/P40G/Q125H/Q99D/R33Q/R42Y/R54Q/S133A/S66F/T210M/V115G/Y107V/Y59L/Y89S); assay: biochemical; format: binding; conditions: binding inhibition assay; NB = non-binder (no dose-dependent inhibition); read-out: DRB1*0701 IC50
How it was run: as §2

HLA-DRB1*1301 = HLA-DRB1*1301 (Homo sapiens, UniProt P01903+P01911, A100E/A169T/K41T/L162R/M171V/P40S/Q125H/Q178H/Q39Y/Q99D/R42S/S66N/T262R/W38E/Y61H); assay: biochemical; format: binding; conditions: binding inhibition assay; NB = non-binder (no dose-dependent inhibition); read-out: DRB1*1301 IC50
How it was run: as §2

HLA-DRB1*1501 = molecular target: T2, HLA-DRB1*1501 (Homo sapiens, UniProt P01903+P01911); assay: biochemical; format: binding; conditions: binding inhibition assay; NB = non-binder (no dose-dependent inhibition); read-out: DRB1*1501 IC50
T2 construct: purchased
How it was run: as §2

HLA-A*0101 = HLA-A*0101 (Homo sapiens, UniProt P04439, A114D/A174V/A182V/D101N/D185E/E176A/E190D/L180R/Q94H/R68K/S129P/T187R/V100A/V91M/W191G); assay: biochemical; format: binding; conditions: allele A*0101; fluorescence polarization competition
How it was run: as §1

[1] = fluorescence polarization competition, read-out: IC50 (nM), in vitro HLA binding affinity
[2] = cell-free competition, fluorescence polarization at 72 hours, Non-binder = no dose-dependent inhibition, read-out: IC50
[3] = fluorescence polarization competition

Compound	IC50 (HLA-B*4402; [1])	IC50 (nM), in vitro HLA binding affinity (HLA-B*4402; [3])	also measured
CC(C)C[C@H](NC(=O)[C@H](CO)NC(=O)[C@H](CS)NC(=O)[C@@H]1CCCN1C(=O)[C@H](Cc1ccccc1)NC(=O)[C@H](CC(N)=O)NC(=O)[C@H](CC(N)=O)NC(=O)[C@H](CCC(=O)O)NC(=O)[C@@H](N)C(C)C)C(=O)N[C@@H](Cc1ccc(O)cc1)C(=O)O [AMA1_437] (H-VENNFPCSLY-OH)	6020 nM		IC50 (HLA-A*0301): 85400 nM
CC[C@H](C)[C@H](NC(=O)[C@@H](NC(=O)[C@@H](NC(=O)[C@H](CCC(=O)O)NC(=O)[C@H](CO)NC(=O)[C@H](CC(N)=O)NC(=O)[C@H](CC(N)=O)NC(=O)[C@H](Cc1ccc(O)cc1)NC(=O)[C@H](CCC(=O)O)NC(=O)[C@@H](N)CCCCN)[C@@H](C)CC)[C@@H](C)O)C(=O)O [CYRPA_142] (H-KEYNNSEITI-OH)	11000 nM		
CC[C@H](C)[C@H](NC(=O)[C@H](Cc1ccc(O)cc1)NC(=O)[C@H](CC(=O)O)NC(=O)[C@H](CO)NC(=O)[C@@H](NC(=O)[C@@H](NC(=O)[C@@H](NC(=O)[C@H](CCC(=O)O)NC(=O)[C@@H](N)CO)[C@@H](C)CC)[C@@H](C)O)[C@@H](C)CC)C(=O)O [CYRPA_147] (H-SEITISDYI-OH)	5380 nM		
CC(C)C[C@H](N)C(=O)N[C@@H](CCC(=O)O)C(=O)N[C@@H](Cc1ccccc1)C(=O)N[C@H](C(=O)N[C@@H](CS)C(=O)N[C@@H](CO)C(=O)N[C@@H](CC(N)=O)C(=O)N[C@@H](CCCNC(=N)N)C(=O)N[C@@H](CC(=O)O)C(=O)N[C@@H](Cc1ccccc1)C(=O)O)C(C)C [CYRPA_264] (H-LEFVCSNRDF-OH)	7460 nM		
CC[C@H](C)[C@H](NC(=O)[C@H](CC(=O)O)NC(=O)[C@H](CCC(=O)O)NC(=O)[C@H](Cc1ccc(O)cc1)NC(C)=O)C(=O)N[C@H](C(=O)N[C@@H](CC(C)C)C(=O)N[C@@H](CCCCN)C(=O)N[C@@H](CO)C(=O)N[C@@H](Cc1c[nH]cn1)C(=O)N[C@@H](CCSC)C(=O)N[C@@H](CC(N)=O)C(=O)N[C@@H](CCCNC(=N)N)C(=O)N[C@@H](CCC(=O)O)C(=O)N[C@@H](CO)C(=O)N[C@@H](CC(=O)O)C(=O)N[C@@H](CC(=O)O)C(N)=O)C(C)C [EBA175_015] (Ac-YEDIVLKSHMNRESDD-NH2)			IC50 (HLA-DRB1*0301): > 100 µM; IC50 (HLA-DRB1*0101): 19.7 µM; IC50 (HLA-DRB1*0701): > 100 µM; IC50 (HLA-DRB1*1301): 4.92 µM; IC50 (HLA-DRB1*1501): 36 µM
CC[C@H](C)[C@H](NC(=O)[C@H](CC(N)=O)NC(=O)[C@H](CC(N)=O)NC(=O)[C@H](Cc1ccccc1)NC(=O)[C@H](CC(N)=O)NC(=O)[C@H](CC(N)=O)NC(=O)[C@H](CC(N)=O)NC(=O)[C@H](CC(N)=O)NC(=O)[C@H](CO)NC(=O)[C@H](CCCNC(=N)N)NC(C)=O)C(=O)N1CCC[C@H]1C(=O)N[C@@H](CO)C(=O)N[C@@H](CCCNC(=N)N)C(=O)N[C@@H](Cc1ccc(O)cc1)C(=O)N[C@@H](CC(N)=O)C(=O)N[C@@H](CC(C)C)C(=O)N[C@@H](Cc1ccc(O)cc1)C(=O)N[C@@H](CC(=O)O)C(N)=O [EBA175_017B] (Ac-RSNNNNFNNIPSRYNLYD-NH2)			IC50 (HLA-DRB1*0301): > 100 µM; IC50 (HLA-DRB1*0101): 0.43 µM; IC50 (HLA-DRB1*1301): > 100 µM; IC50 (HLA-DRB1*1501): 23.6 µM
CC[C@H](C)[C@H](NC(=O)[C@H](Cc1c[nH]c2ccccc12)NC(=O)[C@H](CCC(N)=O)NC(=O)[C@@H](NC(=O)[C@@H](NC(=O)[C@H](CCC(N)=O)NC(=O)[C@H](CC(C)C)NC(=O)[C@H](CCC(=O)O)NC(=O)[C@@H](N)CCC(=O)O)[C@@H](C)CC)[C@@H](C)O)C(=O)O [EBA175_0316] (H-EELQITQWI-OH)			IC50 (HLA-B*4402; [2]): 19600 nM
CC(C)C[C@H](NC(=O)[C@@H](NC(=O)[C@H](Cc1c[nH]cn1)NC(=O)[C@H](Cc1c[nH]c2ccccc12)NC(=O)[C@H](CCC(=O)O)NC(=O)[C@@H](N)Cc1ccccc1)[C@@H](C)O)C(=O)N[C@@H](CO)C(=O)N[C@@H](CCCCN)C(=O)N[C@@H](CCC(=O)O)C(=O)N[C@@H](Cc1ccc(O)cc1)C(=O)O [EBA175_0375] (H-FEWHTLSKEY-OH)			IC50 (HLA-B*4402; [2]): 19100 nM
CC[C@H](C)[C@H](NC(=O)[C@H](CC(=O)O)NC(=O)[C@@H](NC(=O)[C@H](Cc1c[nH]cn1)NC(=O)[C@H](CO)NC(=O)[C@H](CC(C)C)NC(=O)[C@H](CCCNC(=N)N)NC(=O)[C@H](CCC(=O)O)NC(=O)[C@H](CCC(=O)O)NC(=O)[C@@H](N)CCC(=O)O)[C@@H](C)O)C(=O)O [EBA175_1211] (H-EEERLSHTDI-OH)			IC50 (HLA-B*4402; [2]): 19100 nM
CC[C@H](C)[C@H](NC(=O)[C@H](CCCNC(=N)N)NC(=O)[C@H](CC(N)=O)NC(=O)[C@H](Cc1ccccc1)NC(=O)[C@@H](NC(=O)[C@H](Cc1c[nH]cn1)NC(=O)[C@H](CCCCN)NC(=O)[C@H](CCSC)NC(=O)[C@H](CCC(=O)O)NC(=O)[C@@H](N)CCCCN)[C@@H](C)CC)C(=O)O [RH5_415] (H-KEMKHIFNRI-OH)	39200 nM		
CC[C@H](C)[C@H](NC(=O)[C@H](CCC(=O)O)NC(=O)[C@@H](N)CC(N)=O)C(=O)N[C@@H](CC(=O)O)C(=O)N[C@@H](CCCCN)C(=O)N[C@@H](CC(C)C)C(=O)N[C@H](C(=O)N[C@@H](Cc1ccccc1)C(=O)N[C@@H](CO)C(=O)N[C@@H](CC(C)C)C(=O)O)[C@@H](C)O [RIPR_0031] (H-NEIDKLTFSL-OH)	332000 nM		
CC(C)C[C@H](NC(=O)[C@H](Cc1ccc(O)cc1)NC(=O)[C@H](Cc1c[nH]cn1)NC(=O)[C@@H](NC(=O)[C@H](CC(C)C)NC(=O)[C@H](CO)NC(=O)[C@H](CCCCN)NC(=O)[C@H](CC(N)=O)NC(=O)[C@H](CCC(=O)O)NC(=O)[C@@H](N)Cc1ccc(O)cc1)[C@@H](C)O)C(=O)O [RIPR_0226] (H-YENKSLTHYL-OH)	112000 nM		
CC[C@H](C)[C@H](NC(=O)[C@H](CC(=O)O)NC(=O)[C@H](CCC(N)=O)NC(=O)[C@@H](NC(=O)[C@H](CS)NC(=O)[C@H](CCCNC(=N)N)NC(=O)[C@H](Cc1ccc(O)cc1)NC(=O)[C@H](CC(N)=O)NC(=O)[C@H](CCC(=O)O)NC(=O)[C@@H](N)CCC(=O)O)[C@@H](C)O)C(=O)O [RIPR_0283] (H-EENYRCTQDI-OH)	674000 nM		
CC(C)C[C@H](NC(=O)[C@H](CC(N)=O)NC(=O)[C@H](CC(N)=O)NC(=O)[C@H](CCCCN)NC(=O)[C@H](Cc1ccc(O)cc1)NC(=O)[C@H](Cc1ccccc1)NC(=O)[C@H](CCCCN)NC(=O)[C@H](CCC(=O)O)NC(=O)[C@@H](N)CCCCN)C(=O)N[C@@H](Cc1ccc(O)cc1)C(=O)O [RIPR_0378] (H-KEKFYKNNLY-OH)	919000 nM		
DEYIHKLIL [RH5_361]		Non-binder	
EEKDDIKNG [RH5_049]		Non-binder	
KDLSDMTNI [RH5_378]		Non-binder	
KEIDNDKENI [RH5_062]		Non-binder	
KEKHLNNIF [RH5_486]		Non-binder	
NDVPIKMEYF [RH5_506]		Non-binder	
NEKNDVKNN [RH5_123]		Non-binder	
NENNENNFL [EBA175_1454]			IC50 (nM) (HLA-B*4402; cell-free competition, fluorescence polarization at 72 hours, Non-binder = no dose-dependent inhibition): Non-binder
NEYSLFITS [RH5_464]		Non-binder	
SECDIGLIY [RIPR_0611]		Non-binder	IC50 (nM), in vitro HLA binding affinity (HLA-A*0101): Non-binder

Reference: PMC8294059, “Identification and Immune Assessment of T Cell Epitopes in Five Plasmodium falciparum Blood Stage Antigens to Facilitate Vaccine Candidate Selection and Optimization” (Frontiers in Immunology, 2021)
